Laboratory results from US12509461B2, “Enhanced performance of amorphous solid and solubilized formulations for achieving therapeutic plasma concentrations” (BRISTOL-MYERS SQUIBB COMPANY, priority 2019, dated 2025).

Tests used:
[1] = Aqueous solubility and ionization of Compound (I); assay type: physicochemical
Description: [drawing 2] and is referred to herein as “Compound (I)”. Compound (I), a process to prepare Compound (I), and methods of treatment employing Compound (I) are disclosed in U.S. Patent Application Publication No. 2016/0096839, which is assigned to the present assignee and incorporated herein by reference in its entirety. […] These characteristics of Compound (I) render it difficult to formulate for oral administration to achieve therapeutically effective blood levels.

[2] = Microcentrifuge dissolution test in 0.5% SIF in PBS pH 6.5; assay type: physicochemical; details: control; 1000 μg/mL if all of drug had dissolved
Protocol: Microcentrifuge dissolution tests were performed in a 37° C. temperature-controlled box. Weighed 1 mg of sample into each of two 2.0 mL Sorenson microcentrifuge tubes. Added 1.8 mL of 0.5% SIF in phosphate buffered saline (PBS) (pH 6.5) to each tube and started the timer. Vortexed the samples for 1 minute on Setting 8 on a Fisher Vortex Genie 2. Centrifuged the samples for 1 minute at 13,000 rpm using an IEC Micromax microcentrifuge. When the timer reads 4 minutes, extracted 50 μL of supernatant from each microcentrifuge tube into a HPLC vial containing 250 μL of diluent (HPLC-grade 95:5 THF:Water). Vortexed the mixtures for 25 seconds. Repeated the steps for following time points: 10, 20, 40, and 90 minutes, and again at 20 hours.
Analyzed the samples by HPLC using the method below:
As a control, crystalline Compound (I) alone was evaluated using the same procedure. A sufficient amount of material was added so that the concentration of Compound (I) would have been 1000 μg/mL, if all of drug had dissolved.
The concentrations of Compound (I) obtained in these samples were used to determine the maximum dissolved concentration of Compound (I) in solution during the first ninety minutes of the test (MDC90), the area under the concentration-versus-time curve during the initial ninety minutes (AUC90).

SMILES: C[C@@H]1CCC[C@H](n2cnc(-c3cc(Cl)ccc3-n3cc(Cl)nn3)cc2=O)c2cc(ccn2)-c2c(cnn2C(F)F)NC1=O [Compound (I), (9R,13S)-13-{4-[5-chloro-2-(4-chloro-1H-1,2,3-triazol-1-yl)phenyl]-6-oxo-1,6-dihydropyrimidin-1-yl}-3-(difluoromethyl)-9-methyl-3,4,7,15-tetraazatricyclo[12.3.1.0^2,6]octadeca-1(18),2(6),4,14,16-pentaen-8-one]
- ionization ([1]; physiologically relevant region): non-ionizable
- aqueous solubility ([1]; room temperature): low aqueous solubility

SMILES: C[C@@H]1CCC[C@H](n2cnc(-c3cc(Cl)ccc3-n3cc(Cl)nn3)cc2=O)c2cc(ccn2)-c2c(cnn2C(F)F)NC1=O [Crystalline API, (9R,13S)-13-{4-[5-chloro-2-(4-chloro-1H-1,2,3-triazol-1-yl)phenyl]-6-oxo-1,6-dihydropyrimidin-1-yl}-3-(difluoromethyl)-9-methyl-3,4,7,15-tetraazatricyclo[12.3.1.0^2,6]octadeca-1(18),2(6),4,14,16-pentaen-8-one]
- AUC90 [2]: 1810 µg/mL
- Cmax90 [2]: 26 µg/mL
